Experimental data reported in patent US9636324B2, “Use of 15-benzylidence-14-deoxy-11, 12 -dehyroandrographolide derivative in manufacture of medicaments for protecting liver and anti-hepatitis C virus” (Zhengzhou University, priority 2012, dated 2017).

How the values were obtained:
[1] = system: MDBK (NBL-1) cells; test: MTT assay for cytotoxicity; assay type: cell-based, bovine; conditions: 0-7.5 μmol/L, 48 h
Description: The drug-containing medium is added and further incubated for 48 h. MTT is added (5 mg/mL) at 20 μL/well and cultured for 4 h, the supernatant is discarded and 150 μL DMSO is added, then the plate is shaken for 10 minutes and the absorbance is determined using a microplate reader using the wavelength 570 nm and a reference wavelength 450 nm. The cell survival rate is calculated after treatment of compounds: cell survival rate (%)=drug group A value/cell control group A value×100%, and the results are shown in FIG. 10. Cell proliferation inhibition rate (%)=100%−survival rate (%), half maximal (50%) toxic concentration (TC50) is calculated according to Reed-Muench method.

[2] = system: bovine viral diarrhea virus (BVDV-AV69); test: CPE observation of effects on cytopathy caused by BVDV in MDBK cells
Description: Pharmaceutical effects of drugs of the invention against cytopathy caused by inoculation of BVDV virus are investigated using MDBK (NBL-1) cells (purchased from Chinese Academy of Science's Shanghai Center for Type Culture Collection) and bovine viral diarrhea virus (BVDV-AV69) (purchased from China Institute of Veterinary Drugs Control). Ribavirin (R; Henan RunHong Pharmaceutical Co., Ltd; batch number: E0909604) is used as positive drug control. MDBK cells are prepared as a suspension (1×10^5/mL) in RPMI1640 culture medium which contains 10% in volume fetal bovine serum (Zhejiang Tianhang Biotechnology Co., Ltd; batch number: 100524), 100 μg/mL streptomycin (Shenzheng Huayao Nanfang Pharmaceutical Co., Ltd; batch number: N09081), 100 U/mL penicillin (North China Pharmaceutical Co., Ltd; batch number: E0909604), and are seeded in 96 well plates (Costar, US) at 200 μL/well, placed in an incubator (Binder, Germany) at 37° C. with 5% CO2 to culture the cell. In 24 h when cells grow into a single layer, virus solution of 100 TCID50 (TCID50=10^−2.5) is added and incubated for 1.5 h. Maintenance medium with the drug is added at 200 μL/well after 3×PBS washes.
After digestion of MDBK cells with trypsin, cells with a concentration of 1×10^5/mL are seeded into 96 well plates at 200 μL/well, placed in an incubator at 37° C. with 5% CO2 for 24 h. After growing into a single layer, cells are attacked using 100 TCID50 (TCID50=10^−2.5) virus and incubated for 1.5 h. The virus-containing maintenance medium is discarded, and cells are washed with PBS, followed by addition of drug-containing maintenance medium with different concentrations, and incubation in 5% CO2 at 37° C. Normal cell control, virus control, drug treatment and ribavirin treatment groups are set. The cytopathy developing status is recorded everyday by observing under an inverted microscope.

C=C1CCC2C(C)(CO)C(O)CCC2(C)C1C=CC1=CC(=Cc2ccc(Cl)cc2)OC1=O (stereo not shown) [Compound A]
cytotoxicity to MDBK cells [1]: do not show obvious cytotoxcity | antiviral effect compared with AD ([2]; BVDV in MDBK cells): better antiviral effect than AD | pharmaceutical effect against cytopathy caused by virus compared with ribavirin ([2]; BVDV in MDBK cells): better than ribavirin | TI value (therapy index, TC50/IC50) ([2]; MDBK cells, BVDV-AV69, TC50 from MTT, IC50 from CPE): >127.6
